Results on 1 substance are retold here after patent EP1514922A1 (priority 2003, dated 2005).

The target in assay [1] is YFP double mutant YFP-H148Q/V163S (Aequorea victoria, UniProt P42212, H148Q/H231L/S65G/S72A/T203Y/V163S/V68L). The conditions noted are these: physiological pH (7,35); cited from earlier work.
The target in assay [2] is YFP double mutant YFP-H148Q/I152L (Aequorea victoria, UniProt P42212, H148Q/H231L/I152L/S65G/S72A/T203Y/V68L). As to conditions: cited from earlier work.
Assay [3] relates to chloride sensor (ECFP - peptide linker - EYFP with mutations I152L, V163S, H148Q; SEQ ID No. 5). Kind of assay: Calibration of chloride sensor emission ratio R=F527/F485 in patch-pipette dialysed cells. It counts as cell-based. The conditions noted are these: in HEK293 and BOSC23 cells; Rmax = 2,39, Rmin = 0,49. The protocol:
The chloride sensor was expressed in human kidney derived cell lines (HEK293 and BOSC23) using a calcium phosphate transfection procedure.
Measurements of fluorescence are likely to reflect the average [Cl-] in the intracellular compartment.
The ratio (R) of fluorescence emission of the EYFP acceptor to that of the ECFP donor is R=F527/F485.
To calibrate the fluorescence of chloride sensor within these cells, R is measured while using a patch pipette to manipulate the cytoplasmic concentration of anions. A nominally Cl- free solution containing 150 mM gluconate is used to determine the maximal emission ratio for the chloride sensor (Rmax), whereas a solution containing a saturating concentration (150mM) of Cl- defines the minimal emission ratio (Rmin). The relationship between R and intermediates values of [Cl-] is then determined. This relationship could be described as : [Cl-]= K'd (Rmax - R)/(R - Rmin), [formula] with Rmax = 2,39, Rmin = 0,49 and K'd = 87mM. this calibration curve can then be used to convert R values measured in intracellular compartment of living cells into [Cl-].

In general, Kd refers to the concentration at which binding is half-saturated. For the substance chloride [Cl^-], the Kd was 39 mM in assay [1], 85 mM in assay [2] and 87 mM in assay [3]. The “binding kinetics (τ)” value is 1900 ms in assay [1] and 52 ms in assay [2].
